What was measured:
Type in all cases: in vivo
Cyperus difformis = assay: Test Example 3: herbicidal effect by foliage application, Wagner pot (symbol E); conditions: application herbicide amount 320 g/ha
Summary of the method: (§1)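 Post-emergence, paddy-type test: seedlings 14 d old in shallow-flooded (0.1–0.5 cm) alluvial soil, 25–30 °C greenhouse. Emulsion diluted to target rate, sprayed on leaves. Read-out: visual effect on each species at 3 weeks, per set criteria.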

Digitaria ciliaris = assay: Test Example 5: herbicidal effect by foliage application, plastic box (symbol F); conditions: 320 g/ha, 3 weeks after application
Summary of the method: (§2)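 Seeds were sown in sterilized diluvial soil, covered with about 1.5 cm of soil and grown 14 days in a greenhouse at 25° C. to 30° C. An emulsifiable formulation diluted in water to a set rate was sprayed over foliage, and injury was scored 3 weeks later.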

Monochoria vaginalis [1] = assay: Test Example 1: herbicidal activity, application before weed generation in submerged conditions (symbol C); conditions: application herbicide amount 320 g/ha
Summary of the method: (§3)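 Weeds are sown into submerged alluvial soil alongside transplanted 2.5-leaf rice, and the compound, as an emulsion diluted to a set rate, is applied onto the water before emergence. Rating on the 0–5 herbicidal-ratio scale follows 3 weeks of greenhouse growth at 25–30 °C.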

Monochoria vaginalis [2] = assay: Test Example 2: herbicidal activity, application during weed generation in submerged conditions (symbol C); conditions: Table 23; application herbicide amount 320 g/ha; grade 0-5 by criteria of Test Example 1
Summary of the method: (§4)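 Steps: fill pots with alluvial soil; add water to 4 cm depth; co-sow the three weeds; grow at 25° C. to 30° C. under glass; at 1–2 leaves, dose the floodwater with diluted emulsion; rate damage visually after 3 weeks.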

Lolium multiflorum Lam. = assay: Test Example 5: herbicidal effect by foliage application, plastic box (symbol K); conditions: 320 g/ha, 3 weeks after application
Summary of the method: as §2

soybean = assay: Test Example 5: effect on crop by foliage application, plastic box (symbol d); conditions: 320 g/ha, 3 weeks after application
Summary of the method: (§5)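 Box culture: sterile diluvial soil, seeds spot-sown, ~1.5 cm cover, raised under glass at 25–30° C.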

Avena fatua = assay: Test Example 5: herbicidal effect by foliage application, plastic box (symbol I); conditions: 320 g/ha, 3 weeks after application
Summary of the method: as §2

transplanted rice plant = assay: Test Example 1: effect on crop, application before weed generation in submerged conditions (symbol a); conditions: application herbicide amount 320 g/ha
Summary of the method: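 Alluvial soil pots flooded to 4 cm water, sown with Echinochloa oryzacola, Scirpus juncoides and Monochoria vaginalis, then transplanted with 2.5 leaf stage rice seedlings; pre-emergence application. Greenhouse 25° C. to 30° C.; scored 0–5 by herbicidal ratio 3 weeks after application.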

[3] = test system: Echinochloa oryzacola Vasing.; assay: Test Example 2: herbicidal activity, application during weed generation in submerged conditions (symbol A); conditions: Table 23; application herbicide amount 320 g/ha; grade 0-5 by criteria of Test Example 1
Summary of the method: as §4

Apera spica-venti = assay: Test Example 5: herbicidal effect by foliage application, plastic box (symbol L); conditions: 320 g/ha, 3 weeks after application
Summary of the method: as §2

Veronica persica = assay: Test Example 5: herbicidal effect by foliage application, plastic box (symbol R); conditions: 320 g/ha, 3 weeks after application
Summary of the method: as §2

Scirpus juncoides [4] = assay: Test Example 2: herbicidal activity, application during weed generation in submerged conditions (symbol B); conditions: Table 23; application herbicide amount 320 g/ha; grade 0-5 by criteria of Test Example 1
Summary of the method: as §4

Alopecurus myosuroides = assay: Test Example 5: herbicidal effect by foliage application, plastic box (symbol J); conditions: 320 g/ha, 3 weeks after application
Summary of the method: as §2

beet = assay: Test Example 5: effect on crop by foliage application, plastic box (symbol f); conditions: 320 g/ha, 3 weeks after application
Summary of the method: as §5

Abutilon theophrasti = assay: Test Example 5: herbicidal effect by foliage application, plastic box (symbol M); conditions: 320 g/ha, 3 weeks after application
Summary of the method: as §2

Scirpus juncoides [5] = assay: Test Example 1: herbicidal activity, application before weed generation in submerged conditions (symbol B); conditions: application herbicide amount 320 g/ha
Summary of the method: as §3

Amaranthus retroflexus = assay: Test Example 5: herbicidal effect by foliage application, plastic box (symbol N); conditions: 320 g/ha, 3 weeks after application
Summary of the method: as §2

[6] = test system: Echinochloa oryzacola Vasing.; assay: Test Example 1: herbicidal activity, application before weed generation in submerged conditions (symbol A); conditions: application herbicide amount 320 g/ha
Summary of the method: as §3

Leptochloa chinensis = assay: Test Example 3: herbicidal effect by foliage application, Wagner pot (symbol D); conditions: application herbicide amount 320 g/ha
Summary of the method: as §1

Setaria viridis = assay: Test Example 5: herbicidal effect by foliage application, plastic box (symbol G); conditions: 320 g/ha, 3 weeks after application
Summary of the method: as §2

Galium spurium = assay: Test Example 5: herbicidal effect by foliage application, plastic box (symbol Q); conditions: 320 g/ha, 3 weeks after application
Summary of the method: as §2

rice plant = assay: Test Example 5: effect on crop by foliage application, plastic box (symbol b); conditions: 320 g/ha, 3 weeks after application
Summary of the method: as §5

corn = assay: Test Example 5: effect on crop by foliage application, plastic box (symbol c); conditions: 320 g/ha, 3 weeks after application
Summary of the method: as §5

[7] = test system: Echinochloa crus-galli var. crus-galli; assay: Test Example 5: herbicidal effect by foliage application, plastic box (symbol H); conditions: 320 g/ha, 3 weeks after application
Summary of the method: as §2

Chenopodium album = assay: Test Example 5: herbicidal effect by foliage application, plastic box (symbol O); conditions: 320 g/ha, 3 weeks after application
Summary of the method: as §2

[8] = test system: directly sowed rice plant; assay: Test Example 3: effect on crop by foliage application, Wagner pot (symbol b); conditions: application herbicide amount 320 g/ha
Summary of the method: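 Alluvial soil in a 1/10000-are Wagner pot was flooded to a water depth of 0.1–0.5 cm. Echinochloa crus-galli var. crus-galli, Leptochloa chinensis, Cyperus difformis and rice were sown into it and grown in a greenhouse at 25–30 °C.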

rapeseed = assay: Test Example 5: effect on crop by foliage application, plastic box (symbol g); conditions: 320 g/ha, 3 weeks after application
Summary of the method: as §5

Stellaria media = assay: Test Example 5: herbicidal effect by foliage application, plastic box (symbol P); conditions: 320 g/ha, 3 weeks after application
Summary of the method: as §2

[9] = test system: Echinochloa crus-galli var. crus-galli; assay: Test Example 3: herbicidal effect by foliage application, Wagner pot (symbol H); conditions: application herbicide amount 320 g/ha
Summary of the method: as §1

wheat = assay: Test Example 5: effect on crop by foliage application, plastic box (symbol e); conditions: 320 g/ha, 3 weeks after application
Summary of the method: as §5

## CON=C(C)CC1CC(O)=C(c2c(C)cc(C=Cc3ccccc3)cc2C)C1=O (stereo not drawn) [6-072]
Cyperus difformis
  herbicidal effect on E, grade 0-5: 0 (Herbicidal ratio of 5% or lower (almost no effect))
Digitaria ciliaris
  F: Digitaria ciliaris, herbicidal effect (criteria of Test Example 1): 0 (Herbicidal ratio of 5% or lower (almost no effect))
Monochoria vaginalis [1]
  Herbicidal effect grade, C: Monochoria vaginalis: 0 (Herbicidal ratio of 5% or lower (almost no effect))
Monochoria vaginalis [2]
  Herbicidal effect grade, C: Monochoria vaginalis: 0 (Herbicidal ratio of 5% or lower (almost no effect))
Lolium multiflorum Lam.
  K: Lolium multiflorum Lam., herbicidal effect (criteria of Test Example 1): 2 (Herbicidal ratio of 20% or higher and lower than 40%)
soybean
  d: soybean, effect on crop (criteria of Test Example 1): 0 (Herbicidal ratio of 5% or lower (almost no effect))
Avena fatua
  I: Avena fatua, herbicidal effect (criteria of Test Example 1): 3 (Herbicidal ratio of 40% or higher and lower than 70%)
Transplanted rice plant
  Effect grade on crop, a: transplanted rice plant: 0 (Herbicidal ratio of 5% or lower (almost no effect))
[3]
  Herbicidal effect grade, A: Echinochloa oryzacola Vasing.: 1 (Herbicidal ratio of 5% or higher and lower than 20%)
Apera spica-venti
  L: Apera spica-venti, herbicidal effect (criteria of Test Example 1): 0 (Herbicidal ratio of 5% or lower (almost no effect))
Veronica persica
  R: Veronica persica, herbicidal effect (criteria of Test Example 1): 0 (Herbicidal ratio of 5% or lower (almost no effect))
Scirpus juncoides [4]
  Herbicidal effect grade, B: Scirpus juncoides: 0 (Herbicidal ratio of 5% or lower (almost no effect))
Alopecurus myosuroides
  J: Alopecurus myosuroides, herbicidal effect (criteria of Test Example 1): 0 (Herbicidal ratio of 5% or lower (almost no effect))
beet
  f: beet, effect on crop (criteria of Test Example 1): 0 (Herbicidal ratio of 5% or lower (almost no effect))
Abutilon theophrasti
  M: Abutilon theophrasti, herbicidal effect (criteria of Test Example 1): 0 (Herbicidal ratio of 5% or lower (almost no effect))
Scirpus juncoides [5]
  Herbicidal effect grade, B: Scirpus juncoides: 0 (Herbicidal ratio of 5% or lower (almost no effect))
Amaranthus retroflexus
  N: Amaranthus retroflexus, herbicidal effect (criteria of Test Example 1): 0 (Herbicidal ratio of 5% or lower (almost no effect))
[6]
  Herbicidal effect grade, A: Echinochloa oryzacola Vasing.: 4 (Herbicidal ratio of 70% or higher and lower than 90%)
Leptochloa chinensis
  herbicidal effect on D (Leptochloa chinensis), grade 0-5: 5 (Herbicidal ratio of 90% or more (almost completely withered))
Setaria viridis
  G: Setaria viridis, herbicidal effect (criteria of Test Example 1): 4 (Herbicidal ratio of 70% or higher and lower than 90%)
Galium spurium
  Q: Galium spurium, herbicidal effect (criteria of Test Example 1): 0 (Herbicidal ratio of 5% or lower (almost no effect))
Rice plant
  b: directly sowed rice plant, effect on crop (criteria of Test Example 1): 2 (Herbicidal ratio of 20% or higher and lower than 40%)
corn
  c: corn, effect on crop (criteria of Test Example 1): 3 (Herbicidal ratio of 40% or higher and lower than 70%)
[7]
  H: Echinochloa crus-galli var. crus-galli, herbicidal effect (criteria of Test Example 1): 1 (Herbicidal ratio of 5% or higher and lower than 20%)
Chenopodium album
  O: Chenopodium album, herbicidal effect (criteria of Test Example 1): 0 (Herbicidal ratio of 5% or lower (almost no effect))
[8]
  effect on crop b (directly sowed rice plant), grade 0-5: 0 (Herbicidal ratio of 5% or lower (almost no effect))
rapeseed
  g: rapeseed, effect on crop (criteria of Test Example 1): 0 (Herbicidal ratio of 5% or lower (almost no effect))
Stellaria media
  P: Stellaria media, herbicidal effect (criteria of Test Example 1): 0 (Herbicidal ratio of 5% or lower (almost no effect))
[9]
  herbicidal effect on H (Echinochloa crus-galli var. crus-galli), grade 0-5: 5 (Herbicidal ratio of 90% or more (almost completely withered))
wheat
  e: wheat, effect on crop (criteria of Test Example 1): 0 (Herbicidal ratio of 5% or lower (almost no effect))

## COCCON=C(CC1CC(O)=C(c2c(C)cc(Br)cc2C)C1=O)C(C)C (stereo not drawn) [9-018]
Cyperus difformis; Table 24
  E herbicidal effect grade: 0 (Herbicidal ratio of 5% or lower (almost no effect))
Digitaria ciliaris
  F: Digitaria ciliaris, herbicidal effect grade: 0 (Herbicidal ratio of 5% or lower (almost no effect))
Monochoria vaginalis [1]
  C (Monochoria vaginalis) herbicidal effect grade: 0 (Herbicidal ratio of 5% or lower (almost no effect))
Monochoria vaginalis [2]
  Herbicidal effect grade, C: Monochoria vaginalis: 0 (Herbicidal ratio of 5% or lower (almost no effect))
Lolium multiflorum Lam.
  K: Lolium multiflorum Lam., herbicidal effect grade: 1 (Herbicidal ratio of 5% or higher and lower than 20%)
soybean
  d: soybean, effect on crop grade: 0 (Herbicidal ratio of 5% or lower (almost no effect))
Avena fatua
  I: Avena fatua, herbicidal effect grade: 3 (Herbicidal ratio of 40% or higher and lower than 70%)
Transplanted rice plant
  a (transplanted rice plant) effect on crop grade: 2 (Herbicidal ratio of 20% or higher and lower than 40%)
[3]
  Herbicidal effect grade, A: Echinochloa oryzacola Vasing.: 1 (Herbicidal ratio of 5% or higher and lower than 20%)
Apera spica-venti
  L: Apera spica-venti, herbicidal effect grade: 0 (Herbicidal ratio of 5% or lower (almost no effect))
Veronica persica
  R: Veronica persica, herbicidal effect grade: 0 (Herbicidal ratio of 5% or lower (almost no effect))
Scirpus juncoides [4]
  Herbicidal effect grade, B: Scirpus juncoides: 0 (Herbicidal ratio of 5% or lower (almost no effect))
Alopecurus myosuroides
  J: Alopecurus myosuroides, herbicidal effect grade: 1 (Herbicidal ratio of 5% or higher and lower than 20%)
beet
  f: beet, effect on crop grade: 0 (Herbicidal ratio of 5% or lower (almost no effect))
Abutilon theophrasti
  M: Abutilon theophrasti, herbicidal effect grade: 0 (Herbicidal ratio of 5% or lower (almost no effect))
Scirpus juncoides [5]
  B (Scirpus juncoides) herbicidal effect grade: 0 (Herbicidal ratio of 5% or lower (almost no effect))
Amaranthus retroflexus
  N: Amaranthus retroflexus, herbicidal effect grade: 0 (Herbicidal ratio of 5% or lower (almost no effect))
[6]
  A (Echinochloa oryzacola Vasing.) herbicidal effect grade: 1 (Herbicidal ratio of 5% or higher and lower than 20%)
Leptochloa chinensis; Table 24
  D (Leptochloa chinensis) herbicidal effect grade: 0 (Herbicidal ratio of 5% or lower (almost no effect))
Setaria viridis
  G: Setaria viridis, herbicidal effect grade: 3 (Herbicidal ratio of 40% or higher and lower than 70%)
Galium spurium
  Q: Galium spurium, herbicidal effect grade: 0 (Herbicidal ratio of 5% or lower (almost no effect))
Rice plant
  b: directly sowed rice plant, effect on crop grade: 3 (Herbicidal ratio of 40% or higher and lower than 70%)
corn
  c: corn, effect on crop grade: 3 (Herbicidal ratio of 40% or higher and lower than 70%)
[7]
  H: Echinochloa crus-galli var. crus-galli, herbicidal effect grade: 3 (Herbicidal ratio of 40% or higher and lower than 70%)
Chenopodium album
  O: Chenopodium album, herbicidal effect grade: 0 (Herbicidal ratio of 5% or lower (almost no effect))
[8]; Table 24
  b (directly sowed rice plant) effect on crop grade: 4 (Herbicidal ratio of 70% or higher and lower than 90%)
rapeseed
  g: rapeseed, effect on crop grade: 0 (Herbicidal ratio of 5% or lower (almost no effect))
Stellaria media
  P: Stellaria media, herbicidal effect grade: 1 (Herbicidal ratio of 5% or higher and lower than 20%)
[9]; Table 24
  H (Echinochloa crus-galli var. crus-galli) herbicidal effect grade: 2 (Herbicidal ratio of 20% or higher and lower than 40%)
wheat
  e: wheat, effect on crop grade: 0 (Herbicidal ratio of 5% or lower (almost no effect))

From patent US11000033B2, “Ketone or oxime compound, and herbicide” (NISSAN CHEMICAL CORPORATION, priority 2014, dated 2021)
